Where two headings read alike, the source gives them in different places.
What was measured:
ARPE-19 cells [1] = assay: Inhibition of apoptosis induced by oxidative stress (TNF-α/H2O2) in RPE cells, Hoechst staining; assay type: cell-based, human; settings: TNF-α 10 ng/ml + H2O2 600 uM, 14 h, FIG. 1
Description: (§1) ARPE-19 cells (L. M. Hjelmeland, ATCC #CRL-2302) were grown and maintained in DMEM-F12 medium supplemented with 10% FBS and incubated at 37° C. with a constant supply of 5% CO2. ARPE-19 cells are spontaneously transformed human retinal pigment epithelial cells that conserve cellular biological and functional properties. All chemicals were purchased from Sigma Chemical Co. (St. Louis, Mo.) unless otherwise indicated.
ARPE-19 cells growing in DMEM-F-12 medium for 72 h were serum starved for 8 h before induction of oxidative stress, as described in P. K. Mukherjee et al., “Photoreceptor outer segment phagocytosis attenuates oxidative stress-induced apoptosis with concomitant neuroportectin D1 synthesis,” PNAS, vol. 104, pp. 13158-13163 (2007). Oxidative stress was introduced by TNF-α (10 ng/ml) and H2O2 (600 uM) for 14 h and challenged with different concentrations of either lipoxin-A4 or lipoxin A4 epimer 15 (10 nM, 50 nM, and 100 nM; Calbiochem, Madison, Wis.), as indicated in FIG. 1. In initial experiments to test whether lipoxin caused stress, lipoxin A4 and lipoxin A4 epimer 15 were added to RPE cells in which oxidative stress had not been induced with TNF-α or H2O2. The apoptotic cell death was scored by Hoechst staining, as described in Mukherjee et al., 2007. The results were expressed as percentage inhibition of apoptosis by counting the Hoechst positive cells, and are shown in FIG. 1.

ARPE-19 cells [2] = assay: Apoptosis in RPE cells in which oxidative stress had not been induced (test whether lipoxin caused stress), Hoechst staining; assay type: cell-based
Description: as §1
ARPE-19 cells growing in DMEM-F-12 medium for 72 h were serum starved for 8 h before induction of oxidative stress, as described in P. K. Mukherjee et al., “Photoreceptor outer segment phagocytosis attenuates oxidative stress-induced apoptosis with concomitant neuroportectin D1 synthesis,” PNAS, vol. 104, pp. 13158-13163 (2007). Oxidative stress was introduced by TNF-α (10 ng/ml) and H2O2 (600 uM) for 14 h and challenged with different concentrations of either lipoxin-A4 or lipoxin A4 epimer 15 (10 nM, 50 nM, and 100 nM; Calbiochem, Madison, Wis.), as indicated in FIG. 1. […] The apoptotic cell death was scored by Hoechst staining, as described in Mukherjee et al., 2007. The results were expressed as percentage inhibition of apoptosis by counting the Hoechst positive cells, and are shown in FIG. 1.

COX-2 promoter construct = assay: Interleukin-1β induced COX-2 promoter construct (huCOX-2-LUC) luciferase assay in RPE cells; assay type: cell-based, human; settings: IL-1β 10 ng/ml, 14 h
Description: COX-2 is a proinflammatory protein that participates in RPE cell injury. ARPE-19 cells were grown over night in six well plates and then transfected with huCOX-2-LUC (−830) promoter construct (5 ug) for 24 h. Transfected cells were serum starved for 8 h before the addition of IL-1β (10 ng/ml). IL-1β treated cells were challenged with 100 nM, 500 nM, and 1000 nM concentrations of lipoxin A4 and lipoxin A4 epimer 15 for 14 h. Cells were then harvested, and luciferase assays were performed using luciferin as substrate.

ARPE-19 cells [3] = assay: Lipoxins and NPD1 combined effect on apoptosis induced by oxidative stress in RPE cells; assay type: cell-based, human; settings: NPD1 30 nM with lipoxin A4 or its analog 100 nM, 14 h; FIG. 2
Description: The growth of RPE cells, serum starvation, and induction of apoptosis were the same as described above in Example 1 and in Mukherjee et al., 2007. To test for a synergistic effect between lipoxin A4 and […] (NPD1), the oxidative-stressed RPE cells were treated with NPD1 (30 nM) and with lipoxin A4 or its analog (100 nM) for 14 h as indicated in FIG. 2. The percent apoptosis is expressed as described above in Example 1 as a percentage of the Hoechst positive cells.

[4] = 100, 500, 1000 nM, luciferase, FIG. 3

SMILES	inhibition of apoptosis in RPE cells under oxidative stress (ARPE-19 cells [1]; 100 nM)	inhibition of apoptosis in RPE cells under oxidative stress (ARPE-19 cells [1]; 10, 50, 100 nM)	induction of apoptosis in RPE cells (ARPE-19 cells [2]; no oxidative stress (no TNF-α or H2O2), Hoechst positive cells, FIG. 1)	inhibition of IL-1β mediated induction of COX-2 promoter construct (COX-2 promoter construct; 100 nM (lowest inhibition)) [%]	inhibition of IL-1β mediated induction of COX-2 promoter construct (COX-2 promoter construct; 1000 nM)	inhibition of IL-1β mediated induction of COX-2 promoter construct (COX-2 promoter construct; [4])	effect of lipoxin combined with NPD1 on oxidative stress-induced apoptosis (ARPE-19 cells [3])	induction of apoptosis in RPE cells (ARPE-19 cells [2])
CCCCC[C@@H](O)/C=C/C=C\C=C\C=C\[C@@H](O)[C@@H](O)CCCC(=O)O (single isomer, unassigned; epimer 15) [lipoxin A4 epimer 15, 15-epi-lipoxin A4]	highest inhibition	able to inhibit apoptosis in RPE cells in a concentration-dependent manner	did not induce apoptosis	35	highest	inhibit IL-1β mediated induction of COX-2 promoter construct in RPE cells in a concentration-dependent manner	–	–
CC/C=C\C[C@H](O)\C=C/C=C/C=C/[C@H](O)C/C=C\C/C=C\CCC(=O)O [NPD1, neuroprotectin D1, reference compound]	–	–	–	–	–	–	additive	–
CCCCC[C@H](O)/C=C/C=C\C=C\C=C\[C@@H](O)[C@@H](O)CCCC(=O)O [lipoxin A4]	highest inhibition	able to inhibit apoptosis in RPE cells in a concentration-dependent manner	–	35	highest	inhibit IL-1β mediated induction of COX-2 promoter construct in RPE cells in a concentration-dependent manner	additive	did not induce apoptosis

Source: patent US20100324138A1, “Lipoxin A4 Protection for Retinal Cells” (priority 2007, published 2010)
